Source: publication PMC10349806 (Nature Communications, 2023)
Where “and” joins values, the source holds several entries; their conditions need not be identical. Equal values may be shown once. Read-outs that look alike come from different tables or passages of the source.

Key:
PfCRT variant E207N = assay: CQ uptake assay, oocytes expressing E207N; assay type: cell-based, Plasmodium falciparum
Method: (§1) Site-directed mutagenesis of PfCRT^Dd2 was performed as described using the megaprimer method with overlap extension[21],[54]. The primer pairs used are listed in Supplementary Table 6. Please note that a codon-optimized and oocyte-adapted version of PfCRT^Dd2 was used[22] (Supplementary Fig. 16). The resulting DNA fragment was cloned into the SP64T expression vector and verified by sequencing.
(§2) Oocytes were obtained as described previously. Briefly, adult (>2 years old) female X. laevis frogs (NASCO) were anesthetized in a cooled solution of ethyl 3-amino benzoate methanesulfonate (0.1%, w/v), followed by a surgical removal of parts of the ovary. The ovary lobes were carefully dissected and small pieces of oocytes were incubated in Ca^2+-free ND96 buffer (96 mM NaCl, 2 mM KCl, 1 mM MgCl2 buffered with 5 mM HEPES/NaOH, pH 7.5) supplemented with collagenase D (0.1%, w/v; Roche), BSA (0.5%, w/v), and 9 mm Na2HPO4 at 18 °C for 14-16 h while gentle shaking. After incubation, the oocytes were carefully washed several times with ND96 buffer (96 mM NaCl, 2 mM KCl, 1.8 mM CaCl2, 1 mM MgCl2 buffered with 5 mM HEPES/NaOH, pH 7.5) supplemented with 100 mg l^−1 gentamycin). Defolliculated and healthy-looking stage V-VI oocytes were manually selected for RNA microinjection. The RNA was generated as following: The codon-optimized sequences of PfCRT variants were cloned into the pSP64T expression vector. After vector linearization using the restriction endonucleases BamHI or SalI (New England Biolabs), transcription was performed using the in vitro SP6 mMessage mMachine Kit (Ambion)[34]. The obtained RNA was kept at −80 °C and diluted with nuclease-free water to a concentration of 0.6 μg μl^−1. Precision-bore glass capillary tubes (3.5-inch glass capillaries; Drummond Scientific Co.) were pulled on a vertical puller (P-87 Flaming/Brown micropipette puller, Sutter Instrument Co.), graduated, and placed on a microinjector (Nanoject II Auto-Nanoliter Injector, Drummond Scientific Co.). 50 nl of nuclease-free water alone (control oocytes) or 50 nl of 0.6 μg μl^−1 RNA were injected under stereomicroscopic control. Injected oocytes were incubated for 46–72 h at 18 °C with twice-daily buffer changes before usage in experiments.
Drug uptake assays were performed as described previously[21],[22],[24],[34]. […] The direction of radio-labeled drug transport is here from the mostly acidic extracellular solution (pH 4.5 or 6.0, as indicated) into the oocyte cytosol (pH ∼ 7.2), which corresponds to the efflux of drug from the acidic digestive vacuole (pH 5.2) into the parasite cytoplasm (pH 7.2). The topology of PfCRT in the oolemma is such that both the N- and C-terminus face the extracellular milieu[3],[22]. In the parasite, the N- and C-terminus face the lumen of the digestive vacuole. CQ uptake kinetics were performed by incubating oocytes in ND96 buffer adjusted to a pH of 4.5, 5.0, 5.5, or 6.0 and supplemented with 50 nM [^3H]CQ and one of 7 different CQ concentrations (10 µM, 50 µM, 100 µM, 200 µM, 300 µM, 400 µM, 500 µM CQ). The reaction was stopped at the 60 min time point, which is in the linear uptake range[22],[34] (Supplementary Fig. 17). For determination of the amount of drug uptake for each oocyte, the reaction medium was removed and the oocytes were washed three times with 2 ml of ice-cold ND96 buffer. Each oocyte was individually transferred to a scintillation vial containing 5% sodium dodecyl sulfate (200 μl) for lysis. The radioactivity of each sample was measured using a liquid scintillation analyzer Tri-Carb 4910 TR (PerkinElmer). Oocytes that were injected with water instead of RNA were analyzed in parallel, representing the uptake of a drug by diffusion and/or endogenous permeation pathways. The resulting value represents the “background“ level of drug accumulation in oocytes (in-depth discussion in[22]). […]

PfCRT variant E207A = assay: Drug uptake assay, oocytes expressing E207A; assay type: cell-based, Plasmodium falciparum; conditions: for Km: read-out: KM ± SEM
Method: as §1, §2
Drug uptake assays were performed as described previously[21],[22],[24],[34]. […] The direction of radio-labeled drug transport is here from the mostly acidic extracellular solution (pH 4.5 or 6.0, as indicated) into the oocyte cytosol (pH ∼ 7.2), which corresponds to the efflux of drug from the acidic digestive vacuole (pH 5.2) into the parasite cytoplasm (pH 7.2). The topology of PfCRT in the oolemma is such that both the N- and C-terminus face the extracellular milieu[3],[22]. In the parasite, the N- and C-terminus face the lumen of the digestive vacuole. […] For determination of the amount of drug uptake for each oocyte, the reaction medium was removed and the oocytes were washed three times with 2 ml of ice-cold ND96 buffer. Each oocyte was individually transferred to a scintillation vial containing 5% sodium dodecyl sulfate (200 μl) for lysis. […] Oocytes that were injected with water instead of RNA were analyzed in parallel, representing the uptake of a drug by diffusion and/or endogenous permeation pathways. The resulting value represents the “background“ level of drug accumulation in oocytes (in-depth discussion in[22]). The specific PfCRT-mediated uptake was determined by subtracting the corresponding background value measured in water-injected oocytes from that of PfCRT-expressing oocytes. In all cases, at least three separate experiments were performed on oocytes from different frogs (biological replicate), and for each condition in an experiment, measurements were made from 10 oocytes per treatment. For pH 5.5, 6.0, and 6.5, ND96 was buffered with 5 mM MES/Tris base.

[1] = E207N, 50 µM CQ, 1 h, mean ± SEM
[2] = pH 4.5, individual replicates, Fig 6b
[3] = pH 6.0, individual replicates, Fig 6b
[4] = ratio of activity pH 4.5 / pH 6.0
[5] = 50 µM CQ, 1 h, independent samples

`CCN(CC)CCCC(C)Nc1ccnc2cc(Cl)ccc12` (stereo not drawn) [CQ, chloroquine] was tested, and the “Activity at pH 4.5” value (PfCRT variant E207N; [1]) was 2.54 ± 0.34 pmol h-1 oocyte-1, the “Activity at pH 6.0” value (PfCRT variant E207N; [1]) was 2.81 ± 0.43 pmol h-1 oocyte-1 and the R-value (PfCRT variant E207N; E207N, CQ transport at pH 4.5 / pH 6.0) was 0.93 ± 0.07. The “E207N transport activity pH 4.5” value (PfCRT variant E207N; [2]) was 3.35 pmol oocyte-1 h-1 and 2.62 pmol oocyte-1 h-1 and 1.45 pmol oocyte-1 h-1 and 2.72 pmol oocyte-1 h-1, the “E207N transport activity pH 6.0” value (PfCRT variant E207N; [3]) was 3.09 pmol oocyte-1 h-1 and 3.00 pmol oocyte-1 h-1 and 1.41 pmol oocyte-1 h-1 and 3.72 pmol oocyte-1 h-1 and the E207NR-value (PfCRT variant E207N; [4]) was 1.08 and 0.87 and 1.03 and 0.73. The E207A transport activity (PfCRT variant E207A; 10 µM CQ, pH 4.5, 60 min) was 0.59 pmol oocyte-1 h-1 and 0.34 pmol oocyte-1 h-1 and 0.50 pmol oocyte-1 h-1, the E207A transport activity (PfCRT variant E207A; 10 µM CQ, pH 6.0, 60 min) was 0.34 pmol oocyte-1 h-1 and 0.28 pmol oocyte-1 h-1 and 0.55 pmol oocyte-1 h-1 and 0.40 pmol oocyte-1 h-1 and the “E207A transport activity pH 5.0” value (PfCRT variant E207A; [5]) was 1.89 pmol oocyte-1 h-1 and 1.63 pmol oocyte-1 h-1. For the same compound, the “E207A transport activity pH 5.5” value (PfCRT variant E207A; [5]) was 2.56 pmol oocyte-1 h-1 and 1.58 pmol oocyte-1 h-1 and 2.27 pmol oocyte-1 h-1, the E207A transport activity (PfCRT variant E207A; 100 µM CQ, pH 4.5, 60 min) was 4.66 pmol oocyte-1 h-1 and 5.17 pmol oocyte-1 h-1 and 4.25 pmol oocyte-1 h-1 and 5.82 pmol oocyte-1 h-1 and the E207A transport activity (PfCRT variant E207A; 100 µM CQ, pH 6.0, 60 min) was 3.91 pmol oocyte-1 h-1 and 5.58 pmol oocyte-1 h-1 and 5.27 pmol oocyte-1 h-1 and 3.70 pmol oocyte-1 h-1 and 4.07 pmol oocyte-1 h-1 and 4.29 pmol oocyte-1 h-1. The E207A transport activity (PfCRT variant E207A; 200 µM CQ, pH 4.5, 60 min) was 7.55 pmol oocyte-1 h-1 and 5.35 pmol oocyte-1 h-1 and 6.95 pmol oocyte-1 h-1 and 5.93 pmol oocyte-1 h-1, the E207A transport activity (PfCRT variant E207A; 200 µM CQ, pH 6.0, 60 min) was 5.60 pmol oocyte-1 h-1 and 6.08 pmol oocyte-1 h-1 and 5.00 pmol oocyte-1 h-1 and 8.09 pmol oocyte-1 h-1 and 6.01 pmol oocyte-1 h-1 and the E207A transport activity (PfCRT variant E207A; 300 µM CQ, pH 4.5, 60 min) was 7.51 pmol oocyte-1 h-1 and 7.97 pmol oocyte-1 h-1 and 7.66 pmol oocyte-1 h-1. For the same compound, the E207A transport activity (PfCRT variant E207A; 300 µM CQ, pH 6.0, 60 min) was 7.48 pmol oocyte-1 h-1 and 7.35 pmol oocyte-1 h-1 and 8.15 pmol oocyte-1 h-1 and 7.49 pmol oocyte-1 h-1 and 7.22 pmol oocyte-1 h-1, the E207A transport activity (PfCRT variant E207A; 400 µM CQ, pH 4.5, 60 min) was 9.19 pmol oocyte-1 h-1 and 7.30 pmol oocyte-1 h-1 and 9.06 pmol oocyte-1 h-1 and the E207A transport activity (PfCRT variant E207A; 400 µM CQ, pH 6.0, 60 min) was 7.35 pmol oocyte-1 h-1 and 7.71 pmol oocyte-1 h-1 and 9.99 pmol oocyte-1 h-1 and 6.32 pmol oocyte-1 h-1 and 7.81 pmol oocyte-1 h-1. The E207A transport activity (PfCRT variant E207A; 500 µM CQ, pH 4.5, 60 min) was 6.87 pmol oocyte-1 h-1 and 8.11 pmol oocyte-1 h-1 and 8.95 pmol oocyte-1 h-1 and 9.82 pmol oocyte-1 h-1, the E207A transport activity (PfCRT variant E207A; 500 µM CQ, pH 6.0, 60 min) was 7.79 pmol oocyte-1 h-1 and 6.89 pmol oocyte-1 h-1 and 7.81 pmol oocyte-1 h-1 and 10.28 pmol oocyte-1 h-1 and 8.00 pmol oocyte-1 h-1 and the “transport activity at pH 6.0 compared with PfCRT^Dd2” value (PfCRT variant E207A; E207A, 50 µM CQ) was 44%. For the same compound, the “Vmax ± SEM” value (PfCRT variant E207A; E207A, pH 4.5) was 11 ± 1 pmol h^−1 oocyte ^−1, the Km (PfCRT variant E207A; E207A, pH 4.5) was 180 ± 30 µM and the “Vmax ± SEM” value (PfCRT variant E207A; E207A, pH 6.0) was 11 ± 1 pmol h^−1 oocyte ^−1. For the same compound, the Km (PfCRT variant E207A; E207A, pH 6.0) was 150 ± 30 µM, the “Activity at pH 6.0” value (PfCRT variant E207A; E207A, 50 µM CQ, 1 h, mean ± SEM) was 2.24 ± 0.15 pmol h-1 oocyte-1 and the R-value (PfCRT variant E207A; E207A, CQ transport at pH 4.5 / pH 6.0) was 0.9 and 0.89 ± 0.03. The “E207A transport activity pH 4.5” value (PfCRT variant E207A; pH 4.5, individual replicates (Fig 6a)) was 1.64 pmol oocyte-1 h-1 and 1.58 pmol oocyte-1 h-1 and 3.29 pmol oocyte-1 h-1 and 2.17 pmol oocyte-1 h-1 and 2.03 pmol oocyte-1 h-1 and 1.48 pmol oocyte-1 h-1 and 2.30 pmol oocyte-1 h-1 and 1.60 pmol oocyte-1 h-1, the “E207A transport activity pH 4.5” value (PfCRT variant E207A; [2]) was 1.64 pmol oocyte-1 h-1 and 1.58 pmol oocyte-1 h-1 and 3.29 pmol oocyte-1 h-1 and 2.17 pmol oocyte-1 h-1 and 2.03 pmol oocyte-1 h-1 and 1.48 pmol oocyte-1 h-1 and 2.30 pmol oocyte-1 h-1 and 1.60 pmol oocyte-1 h-1 and the “E207A transport activity pH 4.5” value (PfCRT variant E207A; pH 4.5, single replicates, Fig 1d left) was 1.64 pmol oocyte-1 h-1 and 1.58 pmol oocyte-1 h-1 and 3.29 pmol oocyte-1 h-1 and 2.17 pmol oocyte-1 h-1 and 2.03 pmol oocyte-1 h-1 and 1.48 pmol oocyte-1 h-1 and 2.30 pmol oocyte-1 h-1 and 1.60 pmol oocyte-1 h-1. For the same compound, the “E207A R-value” (PfCRT variant E207A; pH 4.5 vs pH 6.0, Fig 1d left) was 0.81 and 1.04 and 1.03 and 0.85 and 0.93 and 0.99 and 0.74, the “E207A transport activity pH 6.0” value (PfCRT variant E207A; pH 6.0, individual replicates (Fig 6a)) was 2.02 pmol oocyte-1 h-1 and 1.94 pmol oocyte-1 h-1 and 3.16 pmol oocyte-1 h-1 and 2.11 pmol oocyte-1 h-1 and 2.38 pmol oocyte-1 h-1 and 1.75 pmol oocyte-1 h-1 and 2.47 pmol oocyte-1 h-1 and 1.62 pmol oocyte-1 h-1 and 2.39 pmol oocyte-1 h-1 and the “E207A transport activity pH 6.0” value (PfCRT variant E207A; [3]) was 2.02 pmol oocyte-1 h-1 and 1.94 pmol oocyte-1 h-1 and 3.16 pmol oocyte-1 h-1 and 2.11 pmol oocyte-1 h-1 and 2.38 pmol oocyte-1 h-1 and 1.75 pmol oocyte-1 h-1 and 2.47 pmol oocyte-1 h-1 and 1.62 pmol oocyte-1 h-1 and 2.39 pmol oocyte-1 h-1. For the same compound, the “E207A transport activity pH 6.0” value (PfCRT variant E207A; pH 6.0, single replicates, Fig 1d left) was 2.02 pmol oocyte-1 h-1 and 1.94 pmol oocyte-1 h-1 and 3.16 pmol oocyte-1 h-1 and 2.11 pmol oocyte-1 h-1 and 2.38 pmol oocyte-1 h-1 and 1.75 pmol oocyte-1 h-1 and 2.47 pmol oocyte-1 h-1 and 1.62 pmol oocyte-1 h-1 and 2.39 pmol oocyte-1 h-1, the “E207A R-value” (PfCRT variant E207A; [4]) was 0.81 and 1.04 and 1.03 and 0.85 and 0.93 and 0.99 and 0.74 and the “E207A R-value” (PfCRT variant E207A; transport activity pH 4.5 relative to pH 6.0 (Fig 6a)) was 0.81 and 1.04 and 1.03 and 0.85 and 0.93 and 0.99 and 0.74.
